Some test systems named below: UACC-257 melanoma; HOP-92 NSCLC; OVCAR-5 ovarian; MDA-MB-231 breast; MOLT-4 leukemia; SNB-19 CNS; RXF 393 renal; SK-MEL-2 melanoma.
Common to all, as to assay: DTP human tumour cell line panel, 48 h

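Five concentrations, 48 hours, 96-well plates. GI50 marks 50% less growth. Definition used: TGI = concentration required for complete inhibition of growth.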

For the compound `Cc1c2cccc-2ccc2c3ccccc3n(C(=O)c3ccc(Cl)cc3)c12`, the TGI with UACC-257 melanoma, in the assay with HOP-92 NSCLC, with OVCAR-5 ovarian, in the assay with MDA-MB-231 breast, in the assay with MOLT-4 leukemia and in the assay on SNB-19 CNS was greater than 100 µM each time. For the same compound, the TGI in the assay with RXF 393 renal and in the assay on SK-MEL-2 melanoma was greater than 100 µM throughout.
`O=C1/C(=C/c2cccc3ccccc23)CCc2ccc([N+](=O)[O-])cc21`: the TGI with HOP-92 NSCLC was 74.4 µM; in the assay on OVCAR-5 ovarian, greater than 100 µM; in the assay on MDA-MB-231 breast it was greater than 100 µM; in the assay with MOLT-4 leukemia, greater than 100 µM; in the assay with SNB-19 CNS, 43.7 µM; with RXF 393 renal it was 88.8 µM.
With `C=C1CC(C)(c2cccc(Nc3nc4ccccc4c4occc34)c2)OC1=O` (stereo not drawn), the TGI is 3.47 µM with UACC-257 melanoma; 7.29 µM in the assay on HOP-92 NSCLC; 31.7 µM in the assay on OVCAR-5 ovarian; 23.1 µM in the assay with MDA-MB-231 breast; greater than 100 µM in the assay on MOLT-4 leukemia; 59.4 µM in the assay on SNB-19 CNS. In the assay with RXF 393 renal, this compound yielded a TGI of 6.02 µM.
For the compound `CCOC(=O)CCC(C(=O)OCC)n1nnc2cc(Nc3c(C)[n+]([O-])c4cc(F)c(OCC)cc4[n+]3[O-])ccc21` (stereo not drawn), the TGI in the assay with UACC-257 melanoma was greater than 100 µM; in the assay on HOP-92 NSCLC, 88.8 µM; with OVCAR-5 ovarian, greater than 100 µM; in the assay on MOLT-4 leukemia, greater than 100 µM; in the assay with SNB-19 CNS, greater than 100 µM; in the assay on RXF 393 renal, 38.7 µM. In the assay on SK-MEL-2 melanoma, this compound came in with a TGI greater than 100 µM.
Regarding `S=C1SC(=Nc2ccccc2)C(=Nc2ccccc2)N1c1ccc2ccccc2c1`, the TGI with OVCAR-5 ovarian, in the assay with MDA-MB-231 breast, in the assay with SNB-19 CNS, in the assay on RXF 393 renal and with SK-MEL-2 melanoma was greater than 100 µM throughout.
For the compound `Clc1ccc(C2=CCN3CC=C(c4ccc(Cl)cc4)C23)cc1`, the TGI is 24.2 µM with UACC-257 melanoma; 17 µM in the assay on OVCAR-5 ovarian; 25 µM in the assay with MDA-MB-231 breast; 28 µM in the assay on MOLT-4 leukemia; 31.6 µM in the assay on SNB-19 CNS; 29.6 µM in the assay on SK-MEL-2 melanoma.
With `CCN(CC)C(=O)Cn1c2c(c3ccccc31)CCCC2`, the TGI in the assay with UACC-257 melanoma, in the assay on HOP-92 NSCLC, in the assay with OVCAR-5 ovarian, in the assay with SNB-19 CNS and with SK-MEL-2 melanoma was greater than 100 µM throughout.
For `COc1cc2nc(-c3cccs3)nc(Nc3cccc(Cl)c3)c2cc1OC`, the TGI in the assay with UACC-257 melanoma, with HOP-92 NSCLC, with OVCAR-5 ovarian, in the assay with MDA-MB-231 breast, in the assay on MOLT-4 leukemia and in the assay on SNB-19 CNS was greater than 100 µM each time. In the assay on SK-MEL-2 melanoma, this compound displayed a TGI greater than 100 µM.
With `CC1(C)Oc2ccc3c(=O)cc(-c4ccccc4)oc3c2C1C(=O)O` (stereo not drawn), the TGI in the assay with UACC-257 melanoma, in the assay on OVCAR-5 ovarian, in the assay with MDA-MB-231 breast, in the assay on MOLT-4 leukemia, with RXF 393 renal and with SK-MEL-2 melanoma was greater than 100 µM throughout.
Regarding `Cc1c([C@H](C)[C@@H]2NC[C@@H](C)C[C@H]2O)ccc2c1C[C@H]1[C@H]2CC=C2C[C@@H](O)CC[C@@]21C`, the TGI is 27.8 µM in the assay with UACC-257 melanoma; 23.3 µM with HOP-92 NSCLC; 90.8 µM in the assay with OVCAR-5 ovarian; 35.4 µM in the assay with MDA-MB-231 breast; 37.4 µM in the assay on MOLT-4 leukemia; 82.3 µM in the assay with SNB-19 CNS. In addition, the TGI in the assay on RXF 393 renal stood at 48.2 µM.
With `COc1ccc(C(=O)/C=C/c2cc(-c3cc(OC)c(OC)c(OC)c3)n[nH]2)cc1`, the GI50 in the assay on OVCAR-5 ovarian was 1.88 µM; in the assay with MOLT-4 leukemia, 2.67 µM; in the assay with RXF 393 renal, 1.27 µM; with SK-MEL-2 melanoma it was 4.14 µM. Besides, the total growth inhibition concentration (TGI) in the assay with OVCAR-5 ovarian amounted to 3.78 µM; in the assay with MOLT-4 leukemia it was 6.82 µM; with RXF 393 renal, 2.56 µM; in the assay with SK-MEL-2 melanoma it was 19.6 µM.
Turning to `O=[N+]([O-])/C(C(Cl)=C(Cl)Cl)=C(/Nc1cccc2cccnc12)n1nnc2ccccc21`, the TGI in the assay on UACC-257 melanoma is greater than 100 µM; in the assay on OVCAR-5 ovarian, 58.3 µM; with MOLT-4 leukemia, greater than 100 µM; in the assay with SNB-19 CNS it was 33.1 µM; in the assay on SK-MEL-2 melanoma it was 33.5 µM.
With `O=C(OCc1ccccc1)N1CCNCCNCCN(C(=O)OCc2ccccc2)CCNCC1`, the TGI is 32 µM in the assay on UACC-257 melanoma; 46.7 µM with HOP-92 NSCLC; greater than 100 µM in the assay with OVCAR-5 ovarian; 65.1 µM in the assay with MDA-MB-231 breast; 38.9 µM with MOLT-4 leukemia; greater than 100 µM in the assay on SNB-19 CNS. The TGI in the assay with SK-MEL-2 melanoma turned out to be 32.9 µM.
`COc1cc(Oc2nc3cc(F)c(F)cc3nc2-c2ccccc2)cc(OC)c1OC`: the TGI with UACC-257 melanoma, with HOP-92 NSCLC, in the assay on OVCAR-5 ovarian, with MOLT-4 leukemia, in the assay on SNB-19 CNS and in the assay with RXF 393 renal was greater than 100 µM throughout. This compound also registered a TGI in the assay on SK-MEL-2 melanoma greater than 100 µM.
As for `COc1ccc2cc(C(C)C(=O)N3C(=O)OCC3(C)C)ccc2c1` (stereo not drawn), the TGI with UACC-257 melanoma, with HOP-92 NSCLC, with OVCAR-5 ovarian, with MDA-MB-231 breast, in the assay with MOLT-4 leukemia and with SNB-19 CNS was greater than 100 µM in each case.
For the compound `CC(=O)C(C)(C)CCC(C)(C)C(C)=O`, the TGI in the assay with UACC-257 melanoma, in the assay on OVCAR-5 ovarian, in the assay on MDA-MB-231 breast, in the assay on MOLT-4 leukemia, with SNB-19 CNS and in the assay on RXF 393 renal was greater than 100 µM throughout. This compound also yielded a TGI with SK-MEL-2 melanoma greater than 100 µM.
Consider `COC1=CC(=O)N(C)C(O)C1(C#N)OC1OC(CO)C(O)C(O)C1O` (stereo not drawn), for which the TGI in the assay with UACC-257 melanoma, in the assay on HOP-92 NSCLC, in the assay with OVCAR-5 ovarian, in the assay on MDA-MB-231 breast, in the assay on MOLT-4 leukemia and in the assay on SNB-19 CNS was greater than 100 µM in each case. In the assay with SK-MEL-2 melanoma, this compound displayed a TGI greater than 100 µM.
Regarding `CC1CCC2(OC1)OC1C(O)C3C4CCC5CC(OC6OC(CO)C(OC7OC(CO)C(O)C(OC8OCC(O)C(O)C8O)C7OC7OC(CO)C(O)C(OC8OC(CO)C(O)C(O)C8O)C7O)C(O)C6O)C(O)CC5(C)C4CCC3(C)C1C2C` (stereo not drawn), the TGI in the assay with UACC-257 melanoma stood at 22.9 µM; in the assay with HOP-92 NSCLC, 26.5 µM; with OVCAR-5 ovarian, 4.12 µM; in the assay with MDA-MB-231 breast, 4.3 µM; in the assay on MOLT-4 leukemia it was 15.1 µM; with SNB-19 CNS, 4.34 µM. The TGI in the assay with SK-MEL-2 melanoma was 17.8 µM.
As for `O=[Se](O)O`, the TGI in the assay with UACC-257 melanoma was greater than 100 µM; with OVCAR-5 ovarian, 4.82 µM; with MDA-MB-231 breast it was 3.05 µM; in the assay on MOLT-4 leukemia it was greater than 100 µM; in the assay with SNB-19 CNS, greater than 22 µM; in the assay with RXF 393 renal, 10.3 µM. Also, the TGI in the assay on SK-MEL-2 melanoma was greater than 39.4 µM.
Take `Clc1cc(Cl)ncn1`: the TGI in the assay with HOP-92 NSCLC, in the assay on OVCAR-5 ovarian, in the assay with MDA-MB-231 breast, in the assay with MOLT-4 leukemia, with SNB-19 CNS and with RXF 393 renal was greater than 100 µM in each case.
Regarding `O=C(N=Nc1ccccc1Cl)NNc1ccccc1Cl`, the TGI was greater than 100 µM in the assay on UACC-257 melanoma; greater than 100 µM in the assay with OVCAR-5 ovarian; greater than 100 µM in the assay on MDA-MB-231 breast; 82.9 µM with MOLT-4 leukemia; greater than 100 µM in the assay with SNB-19 CNS; 67.4 µM in the assay with SK-MEL-2 melanoma.
For `CC1(C)C=C(/C=N/Nc2ccccc2)C(C#N)=C(O)C1(C#N)C#N`, the concentration for total growth inhibition (TGI) is greater than 100 µM in the assay on UACC-257 melanoma; 99.6 µM in the assay with HOP-92 NSCLC; greater than 100 µM with OVCAR-5 ovarian; greater than 100 µM with MDA-MB-231 breast; greater than 100 µM in the assay with MOLT-4 leukemia; greater than 100 µM with SNB-19 CNS. In addition, the TGI with RXF 393 renal is greater than 100 µM.
In the case of `Oc1ccc(Oc2cc3c(cc2Oc2ccc(O)cc2)-c2nc-3nc3[nH]c(nc4nc(nc5[nH]c(n2)c2cc(Oc6ccc(O)cc6)c(Oc6ccc(O)cc6)cc52)-c2cc(Oc5ccc(O)cc5)c(Oc5ccc(O)cc5)cc2-4)c2cc(Oc4ccc(O)cc4)c(Oc4ccc(O)cc4)cc32)cc1`, the TGI with UACC-257 melanoma is greater than 100 µM; with HOP-92 NSCLC, greater than 100 µM; in the assay with OVCAR-5 ovarian, greater than 100 µM; in the assay with MDA-MB-231 breast it was 52.4 µM; with MOLT-4 leukemia, greater than 100 µM; with SNB-19 CNS it was greater than 100 µM.
In the case of `Cc1cc(-c2nc3cccc(O)c3s2)ccc1N`, the TGI in the assay on UACC-257 melanoma is greater than 100 µM; in the assay on HOP-92 NSCLC it was greater than 100 µM; with MDA-MB-231 breast it was greater than 100 µM; with MOLT-4 leukemia, 78.4 µM; in the assay on SNB-19 CNS, 7.43 µM; in the assay with RXF 393 renal, greater than 100 µM. This compound also came in with a TGI with SK-MEL-2 melanoma greater than 100 µM.
For the compound `COc1nc(C#CC2CCCCC2)nc(OC)n1`, the TGI in the assay with UACC-257 melanoma was 23.5 µM; with OVCAR-5 ovarian, 12.3 µM; in the assay on MDA-MB-231 breast, 13.2 µM; with MOLT-4 leukemia it was greater than 100 µM; in the assay with SNB-19 CNS it was 43.6 µM; in the assay with RXF 393 renal, 19.1 µM. This compound also gave a TGI in the assay with SK-MEL-2 melanoma of 13.1 µM.
As for `CCSC1=CC2(O)N(CCc3ccc(OC)c(OC)c3)C(=O)CC2(C(=O)OC)CC1=O` (stereo not drawn), the TGI in the assay with UACC-257 melanoma is 34.6 µM; in the assay with HOP-92 NSCLC, 29.7 µM; with OVCAR-5 ovarian, greater than 100 µM; in the assay with MDA-MB-231 breast, 35.4 µM; with MOLT-4 leukemia, 90.8 µM; with SNB-19 CNS it was greater than 100 µM. The TGI with SK-MEL-2 melanoma came to 38.9 µM.
With `O=C(O)c1cccc(NC(C(=O)c2ccccc2)c2ccccc2)c1` (stereo not drawn), the TGI in the assay with HOP-92 NSCLC, in the assay on OVCAR-5 ovarian, with MDA-MB-231 breast, in the assay on MOLT-4 leukemia, with SNB-19 CNS and in the assay with RXF 393 renal was greater than 100 µM throughout. The TGI in the assay with SK-MEL-2 melanoma was greater than 100 µM.

The term TGI denotes the concentration at which net growth stops. Read a high TGI as lower sensitivity of the cells. As a reminder, the GI50 is the concentration at which growth is held to half of that of the control.

(Values after PubChem BioAssay (NCI).)
